Source: US9464113B2, “Anti-heparan sulfate peptides that block herpes simplex virus infection in vivo” (The Board of Trustees of the University of Illinois, priority 2010, dated 2016)
No end group written: not given here.

Legend:
Assay type in all cases: cell-based, herpes simplex virus type-1
HSV-1(K26GFP) [1] = experiment: HSV-1(K26GFP) binding to human CF (microscopy, fluorescence reader, flow cytometry); settings: for virus binding by flow cytometry: 60 min pre-treatment, 4° C. (FIG. 6C)
Experimental: Flow cytometry was performed to detect the effect of G2 peptide on GFP-HSV-1 binding to human CF. Monolayers of approximately 5×10^6 CF were pre-treated with G2 peptide for 60 min followed by incubation with GFP-expressing HSV-1 (K26GFP) at 4° C. A control peptide treated and untreated cells were similarly incubated with HSV-1 GFP virions. Uninfected CF were used as background negative control. GFP expression from the viral capsid on cell surface was examined by a flowcytometer (MoFlo).
Cultured CF were pre-incubated with 0.5 mM G2 peptide or control-peptide (cp) and then infected with a GFP-tagged HSV-1(K26GFP) virus. Cells were fixed at 60 min post-infection and stained for F-actin and the nucleus (DAPI). GFP-expressing HSV-1(K26GFP) binding to CF in presence and absence of G2 peptides was examined by fluorescence microscopy (FIG. 6A). CF were grown in collagen coated chamber slides and incubated at room temperature for 60 min with G2 (+) or control Cp (G2 (−)) peptide. This was followed by the incubation of the cells in cold with GFP-expressing HSV-1(K26GFP) for 30 min and washing of unbound virioins with PBS. Cells were fixed, stained with phalloidin for F-actin and DAPI for nuclei and examined by a fluorescence microscope (Leica, SP2). The presence of the virus was shown by detecting GFP.
To examine this effect on a population of 10^5 cells, GFP intensity as an indicator of virus binding, was measured after incubation with the virus in cold and rigorous washing of the cells afterwards (FIG. 6B). Relative virus binding to CF was estimated by fluorescence measurements. Cultured CF were pre-incubated with G2 and control peptide (Cp) for 60-min before ice-cold incubation with GFP-expressing HSV-1 virus for 30 min. Cells were washed 3 times and viruses remaining on cell surfaces were assayed for GFP fluorescent intensity using a fluorescence reader (Tecan).
(§1) GFP-expressing HSV-1(K26GFP) intensity as a surrogate for virus binding was quantified in presence G2 or control peptide (abbreviated as C) by flow cytometry (FIG. 6C). The cell/virus incubation was performed as described above. G2 peptides block HSV-1 replication into cultured human corneal fibroblasts (CF) (FIG. 6D). Cultured CF were pre-incubated with G2 or mock-treated (Cp) before infection with HSV-1(K26GFP) virus for 6 h. Viral replications in CF were quantified 0-36 h post-infection by measuring GFP fluorescent intensity using a fluorescence reader (Tecan). The data shown are the means of triplicate measures and are representative of three independent experiments. Asterisks indicate significant difference from other treatments (P<0.01, t test), error bars represent standard deviation (SD).
Primary cultures of human CF pretreated with G2 peptide or control peptide (C) were analyzed for HSV-1(K26GFP) binding. […]

[2] = test system: HSV-1 glycoproteins (gB, gD, gH-gL) induced membrane fusion; experiment: HSV-1 glycoprotein induced cell-to-cell fusion assay, human CF target cells
Text: CHO-K1 “effector” cells (grown in F-12 Ham, Invitrogen) were co-transfected with plasmids expressing four HSV-1(KOS) glycoproteins: pPEP98 (gB), pPEP99 (gD), pPEP100 (gH), and pPEP101 (gL), along with the plasmid pT7EMCLuc that expresses firefly luciferase gene under transcriptional control of the T7 promoter. Pertel et al., Virology 279:313-324 (2001). Wild-type CHO-K1 cells, which express cell-surface HS but lack functional gD receptors, were transiently transfected with HSV-1 entry receptors. Wild-type CHO-K1 cultured cells expressing HSV-1 entry receptors or naturally susceptible cells (human CF) considered as “target cells” were co-transfected with pCAGT7 that expresses T7 RNA polymerase using chicken actin promoter and CMV enhancer. Tiwari et al., FEBS Letters 581:4468-4472 (2007). Untreated effector cells expressing pT7EMCLuc and HSV-1 essential glycoproteins, and target cells expressing gD receptors transfected with T7 RNA polymerase, were used as positive controls. G2 or control peptide-treated target cells were then co-cultivated (1:1 ratio) for 18 h with effector cells for fusion. Activation of a reporter luciferase gene—as a measure of cell fusion—was examined using reporter lysis assay (Promega) at 24 hr post mixing.
Since G2 was isolated against 3-OS HS, which can mediate viral penetration by promoting membrane fusion (Tiwari et al., J. Gen. Virol. 85:805-809 (2004)), the ability of G2 to block HSV-1 glycoprotein-mediated membrane fusion was tested. Pertel et al., Virology 279:313-324 (2001). The same membrane fusion is used during polykaryocytes formation and cell-to-cell spread. Tiwari et al., FEBS Letters 581:4468-4472 (2007) and Tiwari et al., Biochemical and Biophysical Research Communications 390:382-387 (2009). […]
(§2) Control effector cells (T7 polymerase and gD, gH-gL only) (−) were also pre-incubated with G2 for the same duration. […] Membrane fusion as a surrogate for viral spread was detected by monitoring luciferase activity (FIGS. 7A and 7C). Relative luciferase units (RLUs) were determined using a Sirius luminometer (Berthold detection systems). […]

HSV-1(K26GFP) [3] = experiment: HSV-1(K26GFP) replication in human CF (GFP fluorescence over time); settings: 0-36 h post-infection (FIG. 6D)
Experimental: as §1
To further confirm that blocking of viral attachment results in a reduction of viral replication, GFP fluorescence was measured as a function of time (K26GFP) (Desai and Person J. Virol. 72:7563-7568 (1998)) in both G2- and mock-treated cells.

[4] = test system: HSV-1 glycoproteins (gB, gD, gH-gL) induced membrane fusion; experiment: HSV-1 glycoprotein induced cell-to-cell fusion assay, 3-OST-3-expressing CHO-K1 target cells
Text: CHO-K1 “effector” cells (grown in F-12 Ham, Invitrogen) were co-transfected with plasmids expressing four HSV-1(KOS) glycoproteins: pPEP98 (gB), pPEP99 (gD), pPEP100 (gH), and pPEP101 (gL), along with the plasmid pT7EMCLuc that expresses firefly luciferase gene under transcriptional control of the T7 promoter. Pertel et al., Virology 279:313-324 (2001). Wild-type CHO-K1 cells, which express cell-surface HS but lack functional gD receptors, were transiently transfected with HSV-1 entry receptors. Wild-type CHO-K1 cultured cells expressing HSV-1 entry receptors or naturally susceptible cells (human CF) considered as “target cells” were co-transfected with pCAGT7 that expresses T7 RNA polymerase using chicken actin promoter and CMV enhancer. Tiwari et al., FEBS Letters 581:4468-4472 (2007). Untreated effector cells expressing pT7EMCLuc and HSV-1 essential glycoproteins, and target cells expressing gD receptors transfected with T7 RNA polymerase, were used as positive controls. […]
as §2

## RVCGSIGKEVLG [Cp, reference compound]
HSV-1(K26GFP) [1]
  virus binding by flow cytometry: low level inhibitory activity

## MPRRRRIRRRQK [G2, MPRRRRIRRRQK]
[2]; human CF (FIG. 7A)
  blocking of membrane fusion (luciferase activity): very effective in blocking membrane fusion
[2]; human CF (FIG. 7B)
  syncytia (polykaryocyte) formation, Giemsa staining: loss of syncytia formation
HSV-1(K26GFP) [3]
  viral replication (GFP intensity over time): substantial reduction of viral replication
[4]; 3-OST-3-expressing CHO-K1 cells (FIG. 7C)
  blocking of membrane fusion (luciferase activity): very effective in blocking membrane fusion
[4]; 3-OST-3-expressing CHO-K1 cells (FIG. 7D)
  syncytia (polykaryocyte) formation, Giemsa staining: loss of syncytia formation
HSV-1(K26GFP) [1]; 0.5 mM, 60 min, virus in cold 30 min (FIG. 6A)
  virus attachment (fluorescence microscopy): resisted virus attachment
HSV-1(K26GFP) [1]
  virus binding by flow cytometry: virus failed to bind
HSV-1(K26GFP) [1]; fluorescence reader (FIG. 6B)
  relative virus binding (GFP fluorescent intensity): binding was significantly higher in Cp-treated compared to G2 peptide treated cells

## LRSRTKIIRIRH [G1, LRSRTKIIRIRH]
[2]; statement only, target cells not stated, no data shown
  blocking of membrane fusion: does not appear to block membrane fusion
